test system: Wnt/β-catenin transcription; test: Wnt-3A-stimulated TOPFlash reporter assay in HEK293 cells; assay type: cell-based; details: 0.5 μM
Protocol: Stably transfected cells were seeded in 100 μl of cell growth medium/well in 96-well plates at 100% confluency. Fifty microliters of Wnt-3A conditioned medium containing the chemical compounds to be tested or DMSO was added to each well. After an 8 hour treatment, the cells were washed once with PBS and lysed with 55 μl of Passive Lysis Buffer supplied in the Dual-Luciferase Reporter Assay kit (Promega, Madison, Wis.). Twenty-five microliters of cell lysate was used for measuring luciferase activity in a 96-well plate reader (FluoStar Optima, BMG Labtech, Chicago, Ill.). Data were fit using GraphPad Prism (mean±SEM, n>=2).

Row | Compound | Inhibition Wnt/β-catenin transcription TopFlash, % inhibition @ 0.5 μM [% inhibition]
1 | CC(C)(C)OC(=O)CCC(=O)Oc1ccc(Cl)cc1C(=O)Nc1ccc([N+](=O)[O-])cc1Cl [Compound 65, tert-butyl (4-chloro-2-((2-chloro-4-nitrophenyl)carbamoyl)phenyl) succinate] | 60
2 | CCCC(CCC)C(=O)Oc1ccc(Cl)cc1C(=O)Nc1ccc([N+](=O)[O-])cc1Cl [Compound 66, 4-chloro-2-((2-chloro-4-nitrophenyl)carbamoyl)phenyl 2-propylpentanoate] | 30
3 | CC(C)C(=O)Oc1ccc(Cl)cc1C(=O)Nc1ccc([N+](=O)[O-])cc1Cl [Compound 64, 4-chloro-2-((2-chloro-4-nitrophenyl)carbamoyl)phenyl isobutyrate] | 70

same assay, conditions: 1 μM

Row | Compound | Inhibition Wnt/β-catenin transcription TopFlash, % inhibition @ 1 μM [% inhibition]
4 | COc1cc(O)c(C(=O)Nc2ccc([N+](=O)[O-])cc2Cl)cc1Cl [Compound 54, 5-chloro-N-(2-chloro-4-nitrophenyl)-2-hydroxy-4-methoxybenzamide] | 70
5 | O=C(Nc1ccc([N+](=O)[O-])cc1Cl)c1cc(-c2ccccc2)ccc1O [Compound 41, N-(2-chloro-4-nitrophenyl)-4-hydroxy-[1,1′-biphenyl]-3-carboxamide] | 90
6 | Cc1ccc(S(=O)(=O)Nc2ccccc2C(=O)Nc2ccc([N+](=O)[O-])cc2)cc1 [C, 2-((4-methylphenyl)sulfonamido)-N-(4-nitrophenyl)benzamide, reference compound] | 47
7 | O=C(Nc1ccc(C(F)(F)F)cc1Br)c1cc(Cl)ccc1O [Compound 28, N-(2-bromo-4-(trifluoromethyl)phenyl)-5-chloro-2-hydroxybenzamide] | 82

same assay, conditions: 5 μM

Row | Compound | Inhibition Wnt/β-catenin transcription TopFlash, % inhibition @ 5 μM [% inhibition]
8 | O=C(Nc1ccc(C(F)(F)F)cc1Cl)c1ccc2ccccc2c1O [Compound 45, N-(2-chloro-4-(trifluoromethyl)phenyl)-1-hydroxy-2-naphthamide] | 60
9 | O=C(Nc1ccc(C(F)(F)F)cc1Cl)c1cc2ccccc2cc1O [Compound 44, N-(2-chloro-4-(trifluoromethyl)phenyl)-3-hydroxy-2-naphthamide] | 80

same assay, conditions: 20 μM

Row | Compound | Inhibition Wnt/β-catenin transcription TopFlash, % inhibition @ 20 μM [% inhibition]
10 | O=C(Nc1ccc([N+](=O)[O-])cc1Cl)c1cc(Cl)ccc1OC(=O)N1CCOCC1 [Compound 71, 4-chloro-2-((2-chloro-4-nitrophenyl)carbamoyl)phenyl morpholine-4-carboxylate] | 60

same assay, conditions: Homo sapiens, HEK293, 8 h

Row | Compound | inhibition at 2 µM [%] | inhibition at 10 µM [%]
11 | C#CCCCCOc1cc([N+](=O)[O-])ccc1NC(=O)c1cc(Cl)ccc1O [Compound 39, 5-chloro-N-(2-(hex-5-yn-1-yloxy)-4-nitrophenyl)-2-hydroxybenzamide] | 80 | 
12 | CCCCCCCC/C=C\CCCCCCCC(=O)Oc1ccc(Cl)cc1C(=O)Nc1ccc([N+](=O)[O-])cc1Cl [Compound 68, 4-chloro-2-((2-chloro-4-nitrophenyl)carbamoyl)phenyl oleate] | 60 | 
13 | CCCCCCCCCCCCCCCCCC(=O)Oc1ccc(Cl)cc1C(=O)Nc1ccc([N+](=O)[O-])cc1Cl [Compound 62, 4-chloro-2-((2-chloro-4-nitrophenyl)carbamoyl)phenyl stearate] |  | 70
14 | O=C(Nc1ccc([N+](=O)[O-])c(N2CCOCC2)c1)c1cc(Cl)ccc1O [Compound 34, 5-chloro-2-hydroxy-N-(3-morpholino-4-nitrophenyl)benzamide] |  | 40
15 | COc1cc(NC(=O)c2cc(Cl)ccc2O)ccc1[N+](=O)[O-] [Compound 35, 5-chloro-2-hydroxy-N-(3-methoxy-4-nitrophenyl)benzamide] |  | 40
16 | O=C(Nc1ccc(Br)cc1)c1cc(Br)ccc1O [D, 5-bromo-N-(4-bromophenyl)-2-hydroxybenzamide, reference compound] | 60 | 
17 | O=C(Nc1ccc(OCc2ccccc2)c(Cl)c1)c1cc(Cl)ccc1O [Compound 27, N-(4-(benzyloxy)-3-chlorophenyl)-5-chloro-2-hydroxybenzamide] | 75 | 
18 | CCCCC/C=C\C/C=C\CCCCCCCC(=O)Oc1ccc(Cl)cc1C(=O)Nc1ccc([N+](=O)[O-])cc1Cl [Compound 69, 4-chloro-2-((2-chloro-4-nitrophenyl)carbamoyl)phenyl (9Z,12Z)-octadeca-9,12-dienoate] | 85 | 
19 | O=C(Nc1ccc([N+](=O)[O-])cc1Cl)c1cc(-c2ccc(F)cc2F)ccc1O [Compound 42, N-(2-chloro-4-nitrophenyl)-2′,4′-difluoro-4-hydroxy-[1,1′-biphenyl]-3-carboxamide] | 90 | 
20 | O=C(Nc1ccc(C(F)(F)F)c(Cl)c1)c1cc(Cl)ccc1O [Compound 38, 5-chloro-N-(3-chloro-4-(trifluoromethyl)phenyl)-2-hydroxybenzamide] | 90 | 
21 | COc1ccc(C(=O)Nc2ccc([N+](=O)[O-])cc2Cl)c(O)c1 [Compound 53, N-(2-chloro-4-nitrophenyl)-2-hydroxy-4-methoxybenzamide] | 70 | 
22 | COc1cc(O)c(C(=O)Nc2ccc(F)cc2Cl)cc1Cl [Compound 55, 5-chloro-N-(2-chloro-4-fluorophenyl)-2-hydroxy-4-methoxybenzamide] |  | 70
23 | CS(=O)(=O)Nc1ccc(Cl)cc1C(=O)Nc1ccc([N+](=O)[O-])cc1Cl [Compound 51, 5-chloro-N-(2-chloro-4-nitrophenyl)-2-(methylsulfonamido)benzamide] |  | 70
24 | Cc1ccc(S(=O)(=O)Nc2ccc(Br)cc2C(=O)Nc2ccc(C(F)(F)F)cc2)cc1 [Compound 48, 5-bromo-2-((4-methylphenyl)sulfonamido)-N-(4-(trifluoromethyl)phenyl)benzamide] |  | 93
25 | C=CCOc1cc([N+](=O)[O-])ccc1NC(=O)c1cc(Cl)ccc1O [Compound 30, N-(2-(allyloxy)-4-nitrophenyl)-5-chloro-2-hydroxybenzamide] |  | 98
26 | C=CCOc1cc([N+](=O)[O-])ccc1NC(=O)c1cc(Cl)ccc1OC(C)=O [Compound 60, 2-((2-(allyloxy)-4-nitrophenyl)carbamoyl)-4-chlorophenyl acetate] | 80 | 
27 | C#CCOc1cc(N=[N+]=[N-])ccc1NC(=O)c1cc(Cl)ccc1O [Compound 37, N-(4-azido-2-(prop-2-yn-1-yloxy)phenyl)-5-chloro-2-hydroxybenzamide] | 40 | 

same assay, conditions: Homo sapiens, HEK293, 8 h, Wnt-3A conditioned medium, 8 hour treatment; read-out: Inhibition Wnt/β-catenin transcription TopFlash IC50

Row | IC50 [nM] | Compound
28 | > 12000 | O=C(Nc1c(F)cccc1F)c1cc(Cl)ccc1O [Compound 21, 5-chloro-N-(2,6-difluorophenyl)-2-hydroxybenzamide]
29 | 33000 | O=C(Nc1ccccc1)c1ccc(NC(=O)c2cc(Cl)ccc2O)cc1 [Compound 40, 5-chloro-2-hydroxy-N-(4-(phenylcarbamoyl)phenyl)benzamide]
30 | 500 | CCCCCCCCOC(=O)Oc1ccc(Cl)cc1C(=O)Nc1ccc([N+](=O)[O-])cc1Cl [Compound 72, 4-chloro-2-((2-chloro-4-nitrophenyl)carbamoyl)phenyl octyl carbonate]
31 | 370 ± 130 | O=c1oc2ccc(Cl)cc2c(=O)n1-c1ccc([N+](=O)[O-])cc1Cl [Compound 75, 6-chloro-3-(2-chloro-4-nitrophenyl)-2H-benzo[e][1,3]oxazine-2,4(3H)-dione]
32 | 800 | CCCCCCCCOC(=O)O/C(=N/c1ccc([N+](=O)[O-])cc1Cl)c1cc(Cl)ccc1OC(=O)OCCCCCCCC [Compound 79, 5-chloro-N-(2-chloro-4-nitrophenyl)-2-(((octyloxy)carbonyl)oxy)benzimidic (octyl carbonic) anhydride]
33 | 1600 | CCCCCCC(=O)Oc1ccc(Cl)cc1C(=O)N(C(=O)CCCCCC)c1ccc([N+](=O)[O-])cc1Cl [Compound 77, 4-Chloro-2-((2-chloro-4-nitrophenyl)(heptanoyl)carbamoyl)phenyl heptanoate]
34 | > 12000 | O=C(CCCCCNC(=O)CCCCC1SCC2NC(=O)NC21)NCCCCCC(=O)NCCOCCOCCOc1cc([N+](=O)[O-])ccc1NC(=O)c1cc(Cl)ccc1O (stereo not drawn) [Compound 29, 5-chloro-2-hydroxy-N-(4-nitro-2-((10,17,24-trioxo-28-(2-oxohexahydro-1H-thieno[3,4-d]imidazol-4-yl)-3,6-dioxa-9,16,23-triazaoctacosyl)oxy)phenyl)benzamide]

same assay, conditions: Wnt-3A conditioned medium, 8 hour treatment; read-out: Inhibition Wnt/β-catenin transcription TopFlash IC50

Row | IC50 [nM] | Compound
35 | > 12000 | O=C(Nc1ccc([N+](=O)[O-])cc1)c1cc(Cl)ccc1O [B, 5-chloro-2-hydroxy-N-(4-nitrophenyl)benzamide, reference compound]

same assay, conditions: concentration not given

Row | Compound | Inhibition Wnt/β-catenin transcription TopFlash, result in words
36 | COc1cc(O)c(C(=O)Nc2ccc(OCc3ccccc3)c(Cl)c2)cc1OC [Compound 47, N-(4-(benzyloxy)-3-chlorophenyl)-2-hydroxy-4,5-dimethoxybenzamide] | stimulates

same assay, conditions: up to 10 μM

Row | Compound | Inhibition Wnt/β-catenin transcription TopFlash, result in words
37 | COc1cc(O)c(C(=O)Nc2cccc(Cl)c2)cc1Cl [Compound 56, 5-chloro-N-(3-chlorophenyl)-2-hydroxy-4-methoxybenzamide] | No inhibition

same assay, conditions: up to 12 μM

Row | Compound | Inhibition Wnt/β-catenin transcription TopFlash, result in words
38 | O=C(Nc1ccc(C(F)(F)F)cc1)c1cnc2ccccc2c1O [Compound 49, 4-hydroxy-N-(4-(trifluoromethyl)phenyl)quinoline-3-carboxamide] | Stimulates up
39 | COc1cc(O)c(C(=O)Nc2ccc([N+](=O)[O-])cc2Cl)cc1OC [Compound 46, N-(2-chloro-4-nitrophenyl)-2-hydroxy-4,5-dimethoxybenzamide] | No inhibit. up

Source: US10905665B2, “Chemical modulators of signaling pathways and therapeutic use” (Duke University, priority 2015, dated 2021)
